Measured values taken from PMC4891385 (Clinical Drug Investigation, 2016).
Where two headings read alike, the source gives them in different places.

Columns and labels:
[1] = furosemide 40 mg with lesinurad 400 mg vs alone
[2] = substrate: O=C(O)CSc1nnc(Br)n1-c1ccc(C2CC2)c2ccccc12; experiment: [14C]-lesinurad uptake, substrate test, hOCT1 MDCK-II cells; format: in vitro ADME, human; details: other: lesinurad as substrate of OCT1
[3] = substrate: O=C(O)CSc1nnc(Br)n1-c1ccc(C2CC2)c2ccccc12; experiment: [14C]-lesinurad uptake, substrate test, OAT3 oocytes; format: in vitro ADME; details: other: lesinurad as substrate of OAT3
[4] = atorvastatin 40 mg with lesinurad 200 mg vs alone

In the case of `NS(=O)(=O)c1cc(C(=O)O)c(NCc2ccco2)cc1Cl` [Furosemide, furosemide], the “reduction of amount excreted in urine” value [1] is reported as “approximately 25%”.

For `CC(C)c1c(C(=O)Nc2ccccc2O)c(-c2ccccc2)c(-c2ccc(F)cc2)n1CCC(O)CC(O)CC(=O)O` (stereo not drawn) [2-OH-atorvastatin], the “increase in AUC∞” value [4] was 20%, the “increase in Cmax” value [4] was 16% and the “increase in Cmax” value (atorvastatin 40 mg with lesinurad 400 mg vs alone) was 17–34%.

B1: OCT1 (Homo sapiens) (protein)
chain: MPTVDDILEQVGESGWFQKQAFLILCLLSAAFAPICVGIVFLGFTPDHHCQSPGVAELSQRCGWSPAEELNYTVPGLGPAGEAFLGQCRRYEVDWNQSALSCVDPLASLATNRSHLPLGPCQDGWVYDTPGSSIVTEFNLVCADSWKLDLFQSCLNAGFLFGSLGVGYFADRFGRKLCLLGTVLVNAVSGVLMAFSPNYMSMLLFRLLQGLVSKGNWMAGYTLITEFVGSGSRRTVAIMYQMAFTVGLVALTGLAYALPHWRWLQLAVSLPTFLFLLYYWCVPESPRWLLSQKRNTEAIKIMDHIAQKNGKLPPADLKMLSLEEDVTEKLSPSFADLFRTPRLRKRTFILMYLWFTDSVLYQGLILHMGATSGNLYLDFLYSALVEIPGAFIALITIDRVGRIYPMAMSNLLAGAACLVMIFISPDLHWLNIIIMCVGRMGITIAIQMICLVNAELYPTFVRNLGVMVCSSLCDIGGIITPFIVFRLREVWQALPLILFAVLGLLAAGVTLLLPETKGVALPETMKDAENLGRKAKPKENTIYLKVQTSEPSGT
Molecule B1 has a Km [2] of 20 µM.

B2: OAT3 (Homo sapiens) (protein)
chain: MTFSEILDRVGSMGHFQFLHVAILGLPILNMANHNLLQIFTAATPVHHCRPPHNASTGPWVLPMGPNGKPERCLRFVHPPNASLPNDTQRAMEPCLDGWVYNSTKDSIVTEWDLVCNSNKLKEMAQSIFMAGILIGGLVLGDLSDRFGRRPILTCSYLLLAASGSGAAFSPTFPIYMVFRFLCGFGISGITLSTVILNVEWVPTRMRAIMSTALGYCYTFGQFILPGLAYAIPQWRWLQLTVSIPFFVFFLSSWWTPESIRWLVLSGKSSKALKILRRVAVFNGKKEEGERLSLEELKLNLQKEISLAKAKYTASDLFRIPMLRRMTFCLSLAWFATGFAYYSLAMGVEEFGVNLYILQIIFGGVDVPAKFITILSLSYLGRHTTQAAALLLAGGAILALTFVPLDLQTVRTVLAVFGKGCLSSSFSCLFLYTSELYPTVIRQTGMGVSNLWTRVGSMVSPLVKITGEVQPFIPNIIYGITALLGGSAALFLPETLNQPLPETIEDLENWSLRAKKPKQEPEVEKASQRIPLQPHGPGLGSS
B2 gave a Km [3] of 2 µM.
